In article PMC6070797 (Marine Drugs, 2018) one finds IC50 data, which are given here for eleven compounds.

One assay has as its target T1, IMPDH2 (Homo sapiens, UniProt P12268).
T1 construct: made in house; host or cells: Escherichia coli BL21(DE3)
Description: IMPDH2 enzyme inhibition assay (recombinant protein, absorbance at 340 nm). The assay is classed as biochemical. As to conditions: recombinant IMPDH2, IMP and NAD+ substrates, pH 7.2, 37 °C; mean ± SD of three triplicate experiments; read-out: IC50 Inosine-5′-Monophosphate Dehydrogenase (IMPDH2). Here is the method:
The gene encoding IMPDH2 was cloned into the pET-28a vector (Novagen). After the recombinant plasmids were verified by sequencing, the plasmid was transformed into Escherichia coli BL21(DE3) (Invitrogen), which was grown in LB medium at 37 °C to an OD600 (0.8–1.0) and induced by 0.4 mM isopropyl-D-thiogalactopyranoside (IPTG) and grown at 20 °C for 16 h. The cell pellet was harvested and re-suspended in 30 mL buffer (20 mM Tris pH 8.5, 200 mM NaCl, and 10 mM imidazole), followed by disruption on a French press. Cell debris was removed by centrifugation at 21,000 rpm for 30 min. […] The protein was further purified with size exclusion chromatography at 20 mM Tris pH 8.5 and 200 mM NaCl.
The IMPDH2 inhibitory effects of test compounds were measured using the recombinant protein above. The enzyme solution (20 µL, 10 µg/mL), test compounds (10 µL) and buffer (40 µL, 100 mM phosphate buffer, pH 7.2) were pipetted and mixed in a 96-well microtiter plate. The mixture was incubated for 10 min at 37 °C. After incubation, inosine 5′-monophosphate (IMP) substrate solution (30 µL, 2.5 mM) and NAD^+ (30 µL, 5 mM) were added. The reaction can be readily monitored by an increase in optical absorbance at 340 nm. […] The data were imported into Prism (version 5.0, GraphPad) and the IC50 values were calculated by using a standard dose response curve fitting.

The subject of assay [1] is Mouse splenocyte proliferation (T lymphocytes). Description: Immunosuppressive activity: ConA-induced proliferation of mouse splenocytes (T lymphocytes), CCK8. The note with it: BALB/c spleen cells, 5 μg/mL ConA, 24 h, mean ± SD of three triplicate experiments. In kind it is cell-based, BALB/c mice. From the text: To assess the biological activity of the MPA derivatives, we primarily evaluated their IMPDH2 inhibitory activity with the previously reported enzyme assay method. […] Subsequently, the MPA derivatives were further tested for the in vitro immunosuppressive activity against the proliferation of T lymphocytes. Unsurprisingly, the activity at the cellular level was markedly consistent with their IMPDH2 inhibitory activity.
BALB/c mice were sacrificed by cervical dislocation, and the spleens were removed aseptically. Mononuclear cell suspensions were prepared after cell debris, and clumps were removed. Erythrocytes were depleted with ammonium chloride buffer solution. Lymphocytes were washed and suspended in DMEM medium supplemented with 10% FBS, penicillin (100 U/mL), and streptomycin ([…]). The 5 × 10^5 (150 μL per well) spleen cells in 96-well microtiter plates were cultured at 37 °C in a humidified and 5% CO2-containing incubator for 24 h in the presence or absence of the serious concentrations (ranging from 0.1 to 100 µM) of compounds. The cultures were stimulated with 5 μg/mL of concanavalin A (ConA) to induce T cells proliferative response. After treatment for 24 h, the cell quantity was measured using a CCK8 assay kit according to the manufacturer’s instructions.

The IC50 is the concentration that inhibits the measured activity by half. In the case of `COCc1c2c(c(O)c(C/C=C(\C)CCC(=O)O)c1OC)C(=O)OC2` [Compound 1, 8-O-methyl mycophenolic acid], the concentration for half-maximal inhibition (IC50) turned out to be 0.92 ± 0.08 µM on IMPDH2 and 4.21 ± 0.2 µM in assay [1]. Turning to `COc1c(C)c2c(c(O)c1C/C=C(\C)CCC(=O)O)C(=O)OC2` [MPA (11), Mycophenolic acid, reference compound], in assay [1], the IC50 amounted to 0.96 ± 0.05 µM. For the compound `COc1c(C)c2c(c(O)c1CCC(C)C(=O)O)C(=O)OC2` (stereo not drawn) [Compound 5, 6-(3-carboxybutyl)-7-hydroxy-5-methoxy-4-methylphthalan-1-one], the IC50 was 24.7 ± 2.74 µM at IMPDH2 and over 40 µM in assay [1].

For `COc1c(C)c2c(c(O)c1C/C=C(\C)CCC(=O)O)C(=O)OC2OC` (stereo not drawn) [Compound 3, 6-(5-carboxy-3-methylpent-2-enyl)-7-hydroxy-3,5-dimethoxy-4-methylphthalan-1-one], the IC50 on IMPDH2 came to 0.84 ± 0.11 µM; in assay [1] it was 2.76 ± 0.13 µM. On to `COc1c(C)c2c(c(O)c1C/C=C(\C)CCC(=O)N[C@H](C(=O)O)C(C)C)C(=O)OC2` [Compound 8, N-mycophenoyl-L-valine], for which the values for the 50% inhibitory concentration (IC50) (at IMPDH2; in assay [1]) were 15.7 ± 1.65 µM and 30.6 ± 2.19 µM, respectively. For `COC(=O)CC/C(C)=C/Cc1c(O)c2c(c(C)c1OC)C(O)OC2=O` (stereo not drawn) [Compound 4, 6-(5-methoxycarbonyl-3-methylpent-2-enyl)-3,7-dihydroxy-5-methoxy-4-methylphthalan-1-one], in that order: 3.27 ± 0.18 µM and 9.12 ± 0.38 µM. Take `COc1c(C)c2c(c(O)c1C/C=C(\C)CCC(=O)N[C@@H](C)C(=O)O)C(=O)OC2` [Compound 10, N-mycophenoyl-L-alanine]: the values for the concentration for half-maximal inhibition (IC50) (on IMPDH2; in assay [1]) were 17.5 ± 1.3 µM and over 40 µM, respectively.

`COc1c(C)c2c(c(O)c1C/C=C(\C)CCC(=O)NCCCC(=O)O)C(=O)OC2` [Compound 7, 6-[5-(1-carboxy-4-N-carboxylate)-3-methylpent-2-enyl]-7-hydroxy-5-methoxy-4-methylphthalan-1-one]: the figures for the IC50 (at IMPDH2; in assay [1]) were 12.6 ± 1.86 µM and 24.6 ± 1.34 µM, respectively. Regarding `COc1c(C)c2c(c(O)c1C/C=C(\C)CCC(=O)OCC(O)CO)C(=O)OC2` (stereo not drawn) [Compound 6, 6-[5-(2,3-dihydroxy-1-carboxyglyceride)-3-methylpent-2-enyl]-7-hydroxy-5-methoxy-4-methylphthalan-1-one], the values for the concentration for half-maximal inhibition (IC50) (at IMPDH2; in assay [1]) were 8.59 ± 0.43 µM and 19.7 ± 0.89 µM, respectively. In the case of `COc1c(C)c2c(c(O)c1C/C=C(\C)CCC(=O)O)C(=O)OC2O` (stereo not drawn) [Compound 2, 3-hydroxy mycophenolic acid], the values for the 50% inhibitory concentration (IC50) (on IMPDH2; in assay [1]) were 0.95 ± 0.09 µM and 1.23 ± 0.07 µM, respectively. Take `COc1c(C)c2c(c(O)c1C/C=C(\C)CCC(=O)N[C@@H](Cc1ccccc1)C(=O)O)C(=O)OC2` [Compound 9, N-mycophenoyl-L-phenyloalanine]: the IC50 on IMPDH2 was 23.8 ± 3.54 µM; in assay [1], over 40 µM.
